Values quoted from earlier work, collected in patent US20050065132A1, “2-alkylidene-19-nor-vitamin D derivatives for the treatment or prevention of a secon hip fracture” (Pfizer Inc, priority 2003, published 2005).
Where two headings read alike, the source gives them in different places.

Experiments:
[1] = system: serum calcium (bone calcium mobilization); details: given for 7 days in a chronic mode, 130 and 260 pmol/day
[2] = system: intestinal calcium transport
[3] = 130 or 260 pmol dose, chronic 7 days

Compound: C=C1[C@H](O)CC(=C/C=C2\CCC[C@]3(C)[C@@H]([C@H](C)CCCC(C)(C)O)CC[C@@H]23)C[C@H]1O [2-Methylene-19-Nor-1,25-(OH)2D3, 1α,25-dihydroxy-2-methylene-19-nor-vitamin D3]
- bone calcium mobilization [1]: extremely strong
- change in intestinal calcium transport [2, 3]: no intestinal calcium transport activity

Compound: C=C1[C@H](O)CC(=C/C=C2\CCC[C@]3(C)[C@@H]([C@@H](C)CCCC(C)(C)O)CC[C@@H]23)C[C@H]1O [2-Methylene-19-Nor-20S-1,25-(OH)2D3, (20S)-1α,25-dihydroxy-2-methylene-19-nor-vitamin D3]
- bone calcium mobilization [1]: most potent compound tested
- change in intestinal calcium transport [2, 3]: no significant change

Compound: C=C1/C(=C\C=C2/CCC[C@]3(C)[C@@H]([C@H](C)CCCC(C)(C)O)CC[C@@H]23)C[C@@H](O)C[C@@H]1O [1,25-(OH)2D3, 1,25-dihydroxyvitamin D3, reference compound]
- change in intestinal calcium transport ([2]; 260 pmol/day, only dose tested): expected elevation
